Values quoted from earlier work in article PMC5641551, “Chemical Proteomics for Target Discovery of Head-to-Tail Cyclized Mini-Proteins” (Frontiers in Chemistry, 2017).

System: FK-binding protein 12
Conditions: no reference given; cited from earlier work

CO[C@H]1C[C@@H]2CC[C@@H](C)[C@@](O)(O2)C(=O)C(=O)N2CCCC[C@H]2C(=O)O[C@H]([C@H](C)C[C@@H]2CC[C@@H](O)[C@H](OC)C2)CC(=O)[C@H](C)/C=C(\C)[C@@H](O)[C@@H](OC)C(=O)[C@H](C)C[C@H](C)/C=C/C=C/C=C/1C [rapamycin]
binding to FK-binding protein 12: binds to the protein FK-binding protein 12
